Assay [1] has as its target T1, endothelin-stimulated inositol phosphate accumulation in Rat-1 cells (Rattus norvegicus, UniProt P26684).
T1 sequence (P26684 21-426): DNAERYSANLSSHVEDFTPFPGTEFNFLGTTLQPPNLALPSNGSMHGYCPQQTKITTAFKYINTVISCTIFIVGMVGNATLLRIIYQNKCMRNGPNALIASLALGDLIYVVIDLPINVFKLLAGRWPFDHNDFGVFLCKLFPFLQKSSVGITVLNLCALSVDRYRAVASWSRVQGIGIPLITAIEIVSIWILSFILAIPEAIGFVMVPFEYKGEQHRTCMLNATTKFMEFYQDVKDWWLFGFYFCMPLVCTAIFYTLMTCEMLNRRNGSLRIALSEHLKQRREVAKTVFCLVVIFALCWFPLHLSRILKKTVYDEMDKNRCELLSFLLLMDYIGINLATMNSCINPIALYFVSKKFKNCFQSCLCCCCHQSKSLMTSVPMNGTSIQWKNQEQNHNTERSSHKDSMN
Description: Inositol Phosphate Accumulation. Type of assay: cell-based. How it is done:
Inositol Phosphate Accumulation
The functional activity of compounds of Formula I is determined in Rat-1 cells by measuring intra-cellular levels of second messengers. […] Antagonist activity is assessed as the ability of added compounds to reduce endothelin-stimulated inositol phosphate accumulation.

A further assay addresses T2, ETA (Oryctolagus cuniculus, UniProt A5A8K3).
T2 construct: The cells used were rabbit renal artery vascular smooth muscle cells; endogenous in cells; host or cells: rabbit renal artery vascular smooth muscle cells
T2 sequence (A5A8K3 21-427): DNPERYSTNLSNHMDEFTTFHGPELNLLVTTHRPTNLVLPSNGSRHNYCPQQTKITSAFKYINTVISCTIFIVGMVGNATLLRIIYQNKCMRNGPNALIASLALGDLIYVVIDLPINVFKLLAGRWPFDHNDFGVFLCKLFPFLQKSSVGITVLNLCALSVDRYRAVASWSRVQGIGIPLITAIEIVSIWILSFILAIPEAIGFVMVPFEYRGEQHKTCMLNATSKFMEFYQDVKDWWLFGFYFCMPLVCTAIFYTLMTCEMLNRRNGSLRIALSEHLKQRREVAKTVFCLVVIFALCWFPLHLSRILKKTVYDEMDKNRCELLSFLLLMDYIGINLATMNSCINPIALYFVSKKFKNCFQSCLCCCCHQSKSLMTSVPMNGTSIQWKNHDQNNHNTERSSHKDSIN
Description: Endothelin Receptor Binding Assay-A (ETA), intact cell binding of [125I]-ET-1. More on the design: species or system rabbit. The note with it: Table IIa; rabbit renal artery vascular smooth muscle cells; read-out: Binding Assay IC50 at Receptor Subtypes ETA. As to the method:
The cells used were rabbit renal artery vascular smooth muscle cells grown in a 48-well dish (1 cm^2) (confluent cells).
The growth media was Dulbeccos Modified Eagles/Ham's F12 which contained 10 fetal bovine serum and antibiotics (penicillin/streptomycin/fungizone).
Second, remove the assay buffers, place the dish on ice, and add 150 μL of cold assay buffer described above to each well. […] Next, place dish in a 37° C. water bath for about 2 hours and gently agitate the dish every 15 minutes. Discard the radioactive incubation mixture in the sink and wash wells 3 times with 1 mL of cold phosphate buffered saline. Last, add […] of 0.25M sodium hydroxide, agitate for 1 hour on rotator, and then transfer the sodium hydroxide extract to gamma counting tubes and count the radioactivity.

In another assay the target is T3, ETB (Rattus norvegicus, UniProt P21451).
T3 construct: thaw one aliquot of frozen rat cerebellar membranes; from tissue; host or cells: rat cerebellar membranes
T3 sequence (P21451 27-442): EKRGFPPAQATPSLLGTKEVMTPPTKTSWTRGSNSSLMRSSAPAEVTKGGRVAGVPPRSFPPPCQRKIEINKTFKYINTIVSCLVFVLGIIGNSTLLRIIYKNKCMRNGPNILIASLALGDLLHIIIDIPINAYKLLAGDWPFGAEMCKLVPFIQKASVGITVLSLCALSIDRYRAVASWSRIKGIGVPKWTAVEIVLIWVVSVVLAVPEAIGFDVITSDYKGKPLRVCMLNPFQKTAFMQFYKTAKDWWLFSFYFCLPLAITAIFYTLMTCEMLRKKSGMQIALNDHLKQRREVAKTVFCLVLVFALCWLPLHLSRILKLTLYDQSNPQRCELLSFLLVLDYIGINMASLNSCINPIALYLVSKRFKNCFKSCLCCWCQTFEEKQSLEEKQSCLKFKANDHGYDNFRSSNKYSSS
Description: Endothelin Receptor Binding Assay-B (ETB), [125I]-ET-1 binding in rat cerebellar membranes. The conditions noted are these: Table IIa; rat cerebellar membranes; read-out: Binding Assay IC50 at Receptor Subtypes ETB. How it is done: The tissue is made up of 20 mM tris(hydroxymethyl)aminomethane hydrochloride (Trizma) buffer, 2 mM ethylenediaminetetraacetate, 100 μM phenylmethylsulfonyl fluoride.
First, thaw one aliquot of frozen rat cerebellar membranes (2 mg protein in 0.5 mL). Next, add 0.5 mL membrane aliquot to 4.5 mL cold tissue buffer, polytron at 7,500 revolutions per minute for 10 seconds. Finally, dilute tissue suspension 1/100 (0.1 mL suspension+9.9 mL tissue buffer), polytron again, and place ice.
Mix in 150 μL of tissue to each tube, vortex briefly, then tap to force all liquids to bottom (total assay volume=250 μL). Then place the tubes in a 37° C. water bath for 2 hours.
Add 2.5 mL cold water buffer (50 mM Trizma buffer) to each tube, filter, and then wash tube with additional 2.5 mL wash buffer and add to filter. Finally, wash filters with an additional 2.5 mL of cold wash buffer.
Count filters for radioactivity in gamma counter.

Assay [2] deals with T4, endothelin receptor (rat heart ventricle) (Rattus norvegicus, UniProt P26684).
T4 sequence (P26684 21-426): T1 sequence (P26684 21-426)
Description: Rat Heart Ventricle Binding Assay ([125I]-ET-1). The note with it: Table II. How it is done: Rat Heart Ventricle Binding Assay
IC50 values are calculated by weighing nonlinear regression curve-fitting to the mass-action (Langmuir) equation.

Another assay concerns endotoxic shock. The conditions noted are these: mouse model of endotoxic shock; cited from earlier work.
The test system of assay [3] is ET-1 induced bronchoconstriction and tracheal smooth muscle contraction. The conditions noted are these: allergic sheep; cited from earlier work.
Assay [4] has as its system pulmonary artery rings contracted by SRTX-6c. Description: In vitro isolated vessel study, pulmonary artery rings, agonist SRTX-6c. Also on record: species or system rabbit. The note with it: Table III, endothelium-denuded rings. As to the method:
In Vitro (Isolated Vessel) Studies
Male New Zealand rabbits were killed by cervical dislocation and exsanguination. Femoral and pulmonary arteries were isolated, cleaned of connective tissue, and cut into 4 mm rings. The endothelium was denuded by placing the rings over hypodermic tubing (32 gauge for femoral rings and 28 gauge for pulmonary rings, Small Parts Inc., Miami, Fla.) and gently rolling them. Denuded rings were mounted in 20 mL organ baths containing Krebs-bicarbonate buffer (composition in mM: NaCl, 118.2; NaHCO3, 24.8; KCl, 4.6; MgSO4, 7.H2 O, 1.2; KH2 PO4, 1.2; CaCl2. 2H2 O; Ca--Na2 EDTA, 0.026; Dextrose, 10.0), that was maintained at 37° C., and gassed continuously with 5% CO2 in oxygen (pH 7.4). Resting tension was adjusted to 3.0 g for femoral and 4.0 g pulmonary arteries; the rings were left for 90 minutes to equilibrate. Tension was monitored with force displacement transducers (Grass FT03, Quincy, Mass.) and recorded on a polygraph (Gould 2108, Cleveland, Ohio) recorder.
Vascular rings were tested for a lack of functional endothelium, i.e., lack of an endothelium-dependent relaxation response to carbachol (1.0 μM) in norepinephrine (0.03 μM) contracted rings. […]
For the in vitro experiments compounds were dissolved in 0.1% acetic acid in distilled water. […] The antagonist activity of various compounds are expressed as PA2 values in Table III.

SMILES strings stand for the structures. Structures can show the parent of a compound that is named as a salt. Where two headings read alike, the source gives them in different places. Square brackets hold non-standard residues; d marks the D form. Peptide text beside a SMILES is read from it. dDip = N[C@@H](C(=O)O)C(c1ccccc1)c1ccccc1; d2Nal = N[C@H](Cc1ccc2ccccc2c1)C(=O)O; Orn = NCCC[C@H](N)C(=O)O

One may read the inhibition as the change of the read-out against control, counted positive when it falls. Broadly, the IC50 is the concentration needed to halve the response being measured. In the case of `CC[C@H](C)[C@H](NC(=O)[C@H](CC(=O)O)NC(=O)[C@@H](Cc1ccccc1)NC(C)=O)C(=O)N[C@H](C(=O)N[C@@H](Cc1c[nH]c2ccccc12)C(=O)O)[C@@H](C)CC` [Example 11, Ac--D--Phe--Asp--Ile--Ile--Trp] (Ac-[dF]DIIW-OH), the inhibition at 10 µM in assay [1] (Table IIa, @ 10 μM, read-out: IP (Inositol Phosphate) Accumulation, % Inhibition) worked out at 30%. Besides, the results for the IC50 at ETA and on ETB were 9100 nM and 9300 nM, respectively.

`CC[C@H](C)[C@H](NC(=O)[C@H](CC(=O)O)NC(=O)[C@H](CC(C)C)NC(=O)[C@H](NC(C)=O)C(c1ccccc1)c1ccccc1)C(=O)N[C@@H](CCCCN)C(=O)N[C@@H](Cc1c[nH]c2ccccc12)C(=O)O` [Example 17, Ac--D--Dip--Leu--Asp--Ile--Lys--Trp] (Ac-[dDip]LDIKW-OH) came in with an inhibition at 10 µM in assay [2] of 24.6%. The IC50 at ETA was more than 10000 nM; at ETB it was 4200 nM.

As for `CC(C)C[C@@H]1NC(=O)[C@@H](C(C)C)NC(=O)[C@@H]2CCCN2C(=O)[C@@H](CC(=O)O)NC(=O)[C@@H](Cc2c[nH]c3ccccc23)NC1=O` [BQ-123] (cyclo(L[dW][dD]P[dV])), the survival rate entry in the assay on endotoxic shock was “significantly increased”. Moreover, the “effect on ET-1 induced bronchoconstriction and tracheal smooth muscle contraction” value in assay [3] is “block ET-1 induced bronchoconstriction and tracheal smooth muscle contraction”.

In assay [2] (@ 0.05 μM), `CC[C@H](C)[C@H](NC(=O)[C@H](CC(=O)O)NC(=O)[C@H](CCCN)NC(=O)[C@H](NC(C)=O)C(c1ccccc1)c1ccccc1)C(=O)N[C@H](C(=O)N[C@@H](Cc1c[nH]c2ccccc12)C(=O)O)[C@@H](C)CC` [Example 21, Ac--D--Dip--Orn--Asp--Ile--Ile--Trp] (Ac-[dDip][Orn]DIIW-OH) had an inhibition at 0.05 µM of 79%. Moreover, the figures for the IC50 on ETA and on ETB were 15 nM and 220 nM, respectively.

Turning to `CC[C@H](C)[C@H](NC(=O)[C@H](CC(=O)O)NC(=O)[C@H](CC(C)C)NC(=O)[C@H](N)Cc1ccc2ccccc2c1)C(=O)N[C@H](C(=O)N[C@@H](Cc1c[nH]c2ccccc12)C(=O)O)[C@@H](C)CC` [Example 4, D-2-Nal--Leu--Asp--Ile--Ile--Trp] (H-[d2Nal]LDIIW-OH; N-terminus and C-terminus assumed), the inhibition at 50 µM came to 53% in assay [1] (Table II, read-out: IP (Inositol Phosphate) Accumulation, Inhibition) and 53% in assay [1] (Table IIa, read-out: IP (Inositol Phosphate) Accumulation, % Inhibition).

Turning to `CC[C@H](C)[C@H](NC(=O)[C@H](CC(=O)O)NC(=O)[C@H](CCC(=O)O)NC(=O)[C@H](NC(C)=O)C(c1ccccc1)c1ccccc1)C(=O)N[C@H](C(=O)N[C@@H](Cc1c[nH]c2ccccc12)C(=O)O)[C@@H](C)CC` [Example 20, Ac--D--Dip--Glu--Asp--Ile--Ile--Trp] (Ac-[dDip]EDIIW-OH), the “pA2, rabbit pulmonary artery” value in assay [4] stood at 6.85. Further, the IC50 on ETA was 25 nM; at ETB it was 52 nM.

Compound `CC[C@H](C)[C@H](NC(=O)[C@H](CC(=O)O)NC(=O)[C@@H](CC(C)C)NC(=O)[C@H](NC(C)=O)C(c1ccccc1)c1ccccc1)C(=O)N[C@H](C(=O)N[C@@H](Cc1c[nH]c2ccccc12)C(=O)O)[C@@H](C)CC` [Example 23, Ac--D--Dip--D--Leu--Asp--Ile--Ile--Trp] (Ac-[dDip][dL]DIIW-OH) gave an inhibition at 10 µM in assay [2] of 41.3%.

`CC[C@H](C)[C@H](NC(=O)[C@H](CC(=O)O)NC(=O)[C@H](CC(C)C)NC(=O)[C@H](NC(C)=O)C(c1ccccc1)c1ccccc1)C(=O)N[C@@H](CCC(=O)O)C(=O)N[C@@H](Cc1c[nH]c2ccccc12)C(=O)O` [Example 18, Ac--D--Dip--Leu--Asp--Ile--Glu--Trp] (Ac-[dDip]LDIEW-OH): the inhibition at 10 µM in assay [2] was 37%.

`CC[C@H](C)[C@H](NC(=O)[C@H](CC(=O)O)NC(=O)[C@H](CC(C)C)NC(=O)[C@H](NC(C)=O)C(c1ccccc1)c1ccccc1)C(=O)N[C@H](C(=O)N[C@@H](Cc1c[nH]c2ccccc12)C(=O)O)[C@@H](C)CC` [Disodium salt of Ac-D-Dip-Leu-Asp-Ile-Ile-Trp] (Ac-[dDip]LDIIW-OH): the “pA2, rabbit pulmonary artery” value in assay [4] was determined as 6.26.

As to `CC[C@H](C)[C@H](NC(=O)[C@@H](NC(=O)[C@H](CC(=O)O)NC(=O)[C@H](CC(C)C)NC(=O)[C@H](NC(C)=O)C(c1ccccc1)c1ccccc1)C(C)C)C(=O)N[C@@H](Cc1c[nH]c2ccccc12)C(=O)O` [Example 81, Ac--D--Dip--Leu--Asp--Val--Ile--Trp] (Ac-[dDip]LDVIW-OH), the IC50 at ETA was 15 nM; at ETB, 80 nM.

The values above are taken from US5773414A, “Endothelin antagonists” (Warner-Lambert Company, priority 1997, dated 1998).
